Measurements taken from US7138361B2, “Herbicidal heterocycles” (E. I. du Pont de Nemours and Company, priority 2000, dated 2006).

Key:
Format in all cases: in vivo
[1] = test system: crabgrass (Digitaria spp.); experiment: Test A postemergence, sprayed to runoff; details: approx. eleven days
Protocol: (§1) Seeds of barnyardgrass (Echinochloa crus-galli), crabgrass (Digitaria spp.), giant foxtail (Setaria viridis), morning glory (Ipomoea spp.), redroot pigweed (Amaranthus retroflexus) and velvetleaf (Abutilon theophrasti) were planted into a sandy loam soil and treated preemergence by soil drench with test chemicals formulated in a non-phytotoxic solvent mixture which included a surfactant. At the same time, these crop and weed species were also treated postemergence sprayed to runoff with test chemicals formulated in the same manner. Plants ranged in height from two to eighteen cm and were in the one- to two-leaf stage for the postemergence treatment. Treated plants and untreated controls were maintained in a greenhouse for approximately eleven days, after which time all treated plants were compared to untreated controls and visually evaluated for injury. Plant response ratings, summarized in Table A, are based on a 0 to 10 scale where 0 is no effect and 10 is complete control. A dash (-) response means no test results.

[2] = test system: barnyardgrass (Echinochloa crus-galli); experiment: Test A postemergence, sprayed to runoff; details: approx. eleven days
Protocol: as §1

[3] = test system: giant foxtail (Setaria viridis); experiment: Test A postemergence, sprayed to runoff; details: approx. eleven days
Protocol: as §1

[4] = test system: redroot pigweed (Amaranthus retroflexus); experiment: Test A postemergence, sprayed to runoff; details: approx. eleven days
Protocol: as §1

[5] = test system: rice (Oryza saliva); experiment: Test B flooded paddy test; details: Rate 1000 g/ha, scale of 0 to 100 where 0 is no effect and 100 is complete control, visually evaluated after 13 to 15 days
In short: (§2)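 Visual injury score on a 0–100 scale, where 100 means complete control, assigned against untreated controls 13 to 15 days after plants at the 2-leaf stage were treated under flooded paddy conditions.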

[6] = test system: smallflower flatsedge (Cyperus difformis); experiment: Test B flooded paddy test; details: Rate 1000 g/ha, scale of 0 to 100 where 0 is no effect and 100 is complete control, visually evaluated after 13 to 15 days
In short: as §2

[7] = test system: barnyardgrass (Echinochloa crus-galli); experiment: Test B flooded paddy test; details: Rate 1000 g/ha, scale of 0 to 100 where 0 is no effect and 100 is complete control, visually evaluated after 13 to 15 days
In short: as §2

[8] = test system: duck salad (Heteranthera limosa); experiment: Test B flooded paddy test; details: Rate 1000 g/ha, scale of 0 to 100 where 0 is no effect and 100 is complete control, visually evaluated after 13 to 15 days
In short: as §2

[9] = test system: Sunflower; experiment: Test C preemergence; details: Rate 31 g/ha, scale 0 to 100
[10] = test system: pigweed (Amaranthus retroflexus); experiment: Test B postemergence; details: 13 to 15 days
In short: (§3)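 Greenhouse test: chemicals are formulated in a surfactant-containing non-phytotoxic solvent and applied either preemergence to planted seeds or postemergence to plants 2 to 18 cm tall. Response is rated visually versus controls after 13 to 15 days, 0 meaning no effect and 100 complete control.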

[11] = test system: crabgrass (Digitaria sanguinalis); experiment: Test B postemergence; details: 13 to 15 days
In short: as §3

[12] = test system: velvetleaf (Abutilon theophrasti); experiment: Test B postemergence; details: 13 to 15 days
In short: as §3

[13] = test system: giant foxtail (Setaria faberii); experiment: Test B postemergence; details: 13 to 15 days
In short: as §3

[14] = test system: cocklebur (Xanthium strumarium); experiment: Test B postemergence; details: 13 to 15 days
In short: as §3

[15] = test system: lambsquarters (Chenopodium album); experiment: Test B postemergence; details: 13 to 15 days
In short: as §3

[16] = test system: Surinam grass (Brachiaria decumbens); experiment: Test B postemergence; details: 13 to 15 days
In short: as §3

[17] = test system: blackgrass (Alopecurus myosuroides); experiment: Test B postemergence; details: 13 to 15 days
In short: as §3

[18] = test system: morning glory (Ipomoea hederacea); experiment: Test B postemergence; details: 13 to 15 days
In short: as §3

[19] = Rate 125 g/ha, scale 0 (no effect) to 100 (complete control)
[20] = Rate 500 g/ha, scale 0 to 100, 0 is no effect, 100 is complete control
[21] = Rate 250 g/ha, scale 0 (no effect) to 100 (complete control)

O=C1C(n2ccc(C3CC3)n2)OCN1c1cccc(C(F)(F)F)c1 (stereo not shown) [Compound 28]
Plant response rating (visual injury vs untreated controls) ([1]; Rate 500 g/ha): 20 | Plant response rating (visual injury vs untreated controls) ([1]; Rate 2000 g/ha): 40 | Plant response rating (visual injury vs untreated controls) ([2]; Rate 500 g/ha): 60 | Plant response rating (visual injury vs untreated controls) ([2]; Rate 2000 g/ha): 60 | Plant response rating (visual injury vs untreated controls) ([3]; Rate 500 g/ha): 80 | Plant response rating (visual injury vs untreated controls) ([3]; Rate 2000 g/ha): 90 | Plant response rating (visual injury vs untreated controls) ([4]; Rate 500 g/ha): 20 | Plant response rating (visual injury vs untreated controls) ([4]; Rate 2000 g/ha): 80 | Plant response rating, Rice [5]: 50 | Plant response rating, Flatsedge [6]: 100 | Plant response rating, Barnyardgrass [7]: 100 | Plant response rating, Ducksalad [8]: 100 | Plant response rating, Sunflower [9]: 0 | Plant response rating, Pigweed [10, 19]: 30 | Plant response rating, Pigweed [10, 20]: 30 | Plant response rating, Crabgrass [11, 19]: 20 | Plant response rating, Crabgrass [11, 20]: 30 | Plant response rating, Velvetleaf [12, 19]: 0 | Plant response rating, Velvetleaf [12, 20]: 0 | Plant response rating, Foxtail, Giant [13, 19]: 0 | Plant response rating, Foxtail, Giant [13, 20]: 30 | Plant response rating, Cocklebur [14, 19]: 0 | Plant response rating, Cocklebur [14, 20]: 0 | Plant response rating, Lambsquarters [15, 19]: 60 | Plant response rating, Lambsquarters [15, 20]: 70 | Plant response rating, Surinam grass [16, 19]: 0 | Plant response rating, Surinam grass [16, 20]: 0 | Plant response rating, Blackgrass [17, 19]: 0 | Plant response rating, Blackgrass [17, 20]: 0 | Plant response rating, Morningglory [18, 19]: 0 | Plant response rating, Morningglory [18, 20]: 0

CC1CCc2cn(C3CCN(c4cccc(C(F)(F)F)c4)C3=O)nc21 (stereo not shown) [Compound 11]
Plant response rating (visual injury vs untreated controls) ([1]; Rate 500 g/ha): 0 | Plant response rating (visual injury vs untreated controls) ([1]; Rate 2000 g/ha): 10 | Plant response rating (visual injury vs untreated controls) ([2]; Rate 500 g/ha): 20 | Plant response rating (visual injury vs untreated controls) ([2]; Rate 2000 g/ha): 40 | Plant response rating (visual injury vs untreated controls) ([3]; Rate 500 g/ha): 0 | Plant response rating (visual injury vs untreated controls) ([3]; Rate 2000 g/ha): 50 | Plant response rating (visual injury vs untreated controls) ([4]; Rate 500 g/ha): 70 | Plant response rating (visual injury vs untreated controls) ([4]; Rate 2000 g/ha): 90 | Plant response rating, Rice [5]: 40 | Plant response rating, Flatsedge [6]: 100 | Plant response rating, Barnyardgrass [7]: 60 | Plant response rating, Ducksalad [8]: 90 | Plant response rating, Pigweed [10, 19]: 0 | Plant response rating, Pigweed [10, 20]: 0 | Plant response rating, Crabgrass [11, 19]: 0 | Plant response rating, Crabgrass [11, 20]: 0 | Plant response rating, Velvetleaf [12, 19]: 0 | Plant response rating, Velvetleaf [12, 20]: 0 | Plant response rating, Foxtail, Giant [13, 19]: 0 | Plant response rating, Foxtail, Giant [13, 20]: 0 | Plant response rating, Cocklebur [14, 19]: 0 | Plant response rating, Cocklebur [14, 20]: 0 | Plant response rating, Lambsquarters [15, 19]: 0 | Plant response rating, Lambsquarters [15, 20]: 0 | Plant response rating, Surinam grass [16, 19]: 0 | Plant response rating, Surinam grass [16, 20]: 0 | Plant response rating, Blackgrass [17, 19]: 0 | Plant response rating, Blackgrass [17, 20]: 0 | Plant response rating, Morningglory [18, 19]: 0 | Plant response rating, Morningglory [18, 20]: 0

O=C1C(n2cc(Cl)c(C3CC3)n2)CCN1c1cccc(C(F)(F)F)c1 (stereo not shown) [Compound 12]
Plant response rating (visual injury vs untreated controls) ([1]; Rate 500 g/ha): 0 | Plant response rating (visual injury vs untreated controls) ([1]; Rate 2000 g/ha): 0 | Plant response rating (visual injury vs untreated controls) ([2]; Rate 500 g/ha): 0 | Plant response rating (visual injury vs untreated controls) ([2]; Rate 2000 g/ha): 0 | Plant response rating (visual injury vs untreated controls) ([3]; Rate 500 g/ha): 0 | Plant response rating (visual injury vs untreated controls) ([3]; Rate 2000 g/ha): 0 | Plant response rating (visual injury vs untreated controls) ([4]; Rate 500 g/ha): 0 | Plant response rating (visual injury vs untreated controls) ([4]; Rate 2000 g/ha): 0 | Plant response rating, Rice [5]: 0 | Plant response rating, Flatsedge [6]: 30 | Plant response rating, Barnyardgrass [7]: 0 | Plant response rating, Ducksalad [8]: 0 | Plant response rating, Pigweed [10, 19]: 0 | Plant response rating, Pigweed [10, 20]: 0 | Plant response rating, Crabgrass [11, 19]: 0 | Plant response rating, Crabgrass [11, 20]: 0 | Plant response rating, Velvetleaf [12, 19]: 0 | Plant response rating, Velvetleaf [12, 20]: 0 | Plant response rating, Foxtail, Giant [13, 19]: 0 | Plant response rating, Foxtail, Giant [13, 20]: 0 | Plant response rating, Cocklebur [14, 19]: 0 | Plant response rating, Cocklebur [14, 20]: 0 | Plant response rating, Lambsquarters [15, 19]: 0 | Plant response rating, Lambsquarters [15, 20]: 0 | Plant response rating, Surinam grass [16, 19]: 0 | Plant response rating, Surinam grass [16, 20]: 0 | Plant response rating, Blackgrass [17, 19]: 0 | Plant response rating, Blackgrass [17, 20]: 0 | Plant response rating, Morningglory [18, 19]: 0 | Plant response rating, Morningglory [18, 20]: 0

CC1(C)CCc2cn(C3CCN(c4cccc(C(F)(F)F)c4)C3=O)nc21 (stereo not shown) [Compound 10]
Plant response rating (visual injury vs untreated controls) ([1]; Rate 500 g/ha): 10 | Plant response rating (visual injury vs untreated controls) ([1]; Rate 2000 g/ha): 10 | Plant response rating (visual injury vs untreated controls) ([2]; Rate 500 g/ha): 20 | Plant response rating (visual injury vs untreated controls) ([2]; Rate 2000 g/ha): 10 | Plant response rating (visual injury vs untreated controls) ([3]; Rate 500 g/ha): 10 | Plant response rating (visual injury vs untreated controls) ([3]; Rate 2000 g/ha): 10 | Plant response rating (visual injury vs untreated controls) ([4]; Rate 500 g/ha): 20 | Plant response rating (visual injury vs untreated controls) ([4]; Rate 2000 g/ha): 100 | Plant response rating, Rice [5]: 60 | Plant response rating, Flatsedge [6]: 100 | Plant response rating, Barnyardgrass [7]: 100 | Plant response rating, Ducksalad [8]: 100 | Plant response rating, Pigweed [10, 19]: 0 | Plant response rating, Pigweed [10, 21]: 0 | Plant response rating, Pigweed [10, 20]: 0 | Plant response rating, Crabgrass [11, 19]: 0 | Plant response rating, Crabgrass [11, 21]: 0 | Plant response rating, Crabgrass [11, 20]: 0 | Plant response rating, Velvetleaf [12, 19]: 0 | Plant response rating, Velvetleaf [12, 21]: 0 | Plant response rating, Velvetleaf [12, 20]: 0 | Plant response rating, Foxtail, Giant [13, 19]: 0 | Plant response rating, Foxtail, Giant [13, 21]: 0 | Plant response rating, Foxtail, Giant [13, 20]: 0 | Plant response rating, Cocklebur [14, 19]: 0 | Plant response rating, Cocklebur [14, 21]: 0 | Plant response rating, Cocklebur [14, 20]: 0 | Plant response rating, Lambsquarters [15, 19]: 0 | Plant response rating, Lambsquarters [15, 21]: 100 | Plant response rating, Lambsquarters [15, 20]: 0 | Plant response rating, Surinam grass [16, 19]: 0 | Plant response rating, Surinam grass [16, 21]: 0 | Plant response rating, Surinam grass [16, 20]: 0 | Plant response rating, Blackgrass [17, 19]: 0 | Plant response rating, Blackgrass [17, 21]: 0 | Plant response rating, Blackgrass [17, 20]: 0 | Plant response rating, Morningglory [18, 19]: 0 | Plant response rating, Morningglory [18, 21]: 0 | Plant response rating, Morningglory [18, 20]: 0

O=C1C(n2ccc(C3CC3)n2)SCN1c1cccc(C(F)(F)F)c1 (stereo not shown) [Compound 26]
Plant response rating (visual injury vs untreated controls) ([1]; Rate 500 g/ha): 30 | Plant response rating (visual injury vs untreated controls) ([1]; Rate 2000 g/ha): 20 | Plant response rating (visual injury vs untreated controls) ([2]; Rate 500 g/ha): 90 | Plant response rating (visual injury vs untreated controls) ([2]; Rate 2000 g/ha): 90 | Plant response rating (visual injury vs untreated controls) ([3]; Rate 500 g/ha): 50 | Plant response rating (visual injury vs untreated controls) ([3]; Rate 2000 g/ha): 100 | Plant response rating (visual injury vs untreated controls) ([4]; Rate 500 g/ha): 40 | Plant response rating (visual injury vs untreated controls) ([4]; Rate 2000 g/ha): 80 | Plant response rating, Rice [5]: 0 | Plant response rating, Flatsedge [6]: 0 | Plant response rating, Barnyardgrass [7]: 0 | Plant response rating, Ducksalad [8]: 0 | Plant response rating, Pigweed [10, 19]: 0 | Plant response rating, Pigweed [10, 20]: 60 | Plant response rating, Crabgrass [11, 19]: 0 | Plant response rating, Crabgrass [11, 20]: 20 | Plant response rating, Velvetleaf [12, 19]: 20 | Plant response rating, Velvetleaf [12, 20]: 20 | Plant response rating, Foxtail, Giant [13, 19]: 20 | Plant response rating, Foxtail, Giant [13, 20]: 50 | Plant response rating, Cocklebur [14, 19]: 50 | Plant response rating, Cocklebur [14, 20]: 60 | Plant response rating, Lambsquarters [15, 19]: 80 | Plant response rating, Lambsquarters [15, 20]: 80 | Plant response rating, Surinam grass [16, 19]: 20 | Plant response rating, Surinam grass [16, 20]: 20 | Plant response rating, Blackgrass [17, 19]: 0 | Plant response rating, Blackgrass [17, 20]: 0 | Plant response rating, Morningglory [18, 19]: 0 | Plant response rating, Morningglory [18, 20]: 10
